Literature values in publication PMC9603901, “Therapeutic Potential of Antimicrobial Peptide PN5 against Multidrug-Resistant E. coli and Anti-Inflammatory Activity in a Septic Mouse Model” (Microbiology Spectrum, 2022).
Values after ≈ are worked out from the molar mass of the structure shown.

Legend:
Design in all cases: method as in Asan hospital; key to susceptibility category: S: susceptible; R: resistant; I: intermediate
[1] = tested on: MDR E. coli ASEC 5; conditions: ref Asan hospital, cited from earlier work; for MIC: ASEC 5 (ESBL), resistance information of clinical isolate; for susceptibility category: ASEC 5
[2] = tested on: MDR E. coli ASEC 6; conditions: ref Asan hospital, cited from earlier work; for MIC: ASEC 6 (ESBL), resistance information of clinical isolate; for susceptibility category: ASEC 6
[3] = tested on: MDR E. coli ASEC 1; conditions: ref Asan hospital, cited from earlier work; for MIC: ASEC 1 (carbapenemase NDM-1), resistance information of clinical isolate; for susceptibility category: ASEC 1
[4] = tested on: MDR E. coli ASEC 13; conditions: ref Asan hospital, cited from earlier work; for MIC: ASEC 13 (AmpC), resistance information of clinical isolate; for susceptibility category: ASEC 13
[5] = tested on: MDR E. coli ASEC 12; conditions: ref Asan hospital, cited from earlier work; for MIC: ASEC 12 (AmpC), resistance information of clinical isolate; for susceptibility category: ASEC 12
[6] = tested on: MDR E. coli ASEC 4; conditions: ref Asan hospital, cited from earlier work; for MIC: ASEC 4 (ESBL), resistance information of clinical isolate; for susceptibility category: ASEC 4
[7] = tested on: MDR E. coli ASEC 7; conditions: ref Asan hospital, cited from earlier work; for MIC: ASEC 7 (ESBL), resistance information of clinical isolate; for susceptibility category: ASEC 7
[8] = tested on: MDR E. coli ASEC 16; conditions: ref Asan hospital, cited from earlier work; for MIC: ASEC 16 (AmpC), resistance information of clinical isolate; for susceptibility category: ASEC 16
[9] = tested on: MDR E. coli ASEC 3; conditions: ref Asan hospital, cited from earlier work; for MIC: ASEC 3 (NDM-5), resistance information of clinical isolate; for susceptibility category: ASEC 3
[10] = tested on: MDR E. coli ASEC 17; conditions: ref Asan hospital, cited from earlier work; for MIC: ASEC 17 (AmpC), resistance information of clinical isolate; for susceptibility category: ASEC 17
[11] = tested on: MDR E. coli ASEC 19; conditions: ref Asan hospital, cited from earlier work; for MIC: ASEC 19 (AmpC), resistance information of clinical isolate; for susceptibility category: ASEC 19
[12] = tested on: MDR E. coli ASEC 9; conditions: ref Asan hospital, cited from earlier work; for MIC: ASEC 9 (ESBL), resistance information of clinical isolate; for susceptibility category: ASEC 9
[13] = tested on: MDR E. coli ASEC 18; conditions: ref Asan hospital, cited from earlier work; for MIC: ASEC 18 (AmpC), resistance information of clinical isolate; for susceptibility category: ASEC 18
[14] = tested on: MDR E. coli ASEC 15; conditions: ref Asan hospital, cited from earlier work; for MIC: ASEC 15 (AmpC), resistance information of clinical isolate; for susceptibility category: ASEC 15
[15] = tested on: MDR E. coli ASEC 10; conditions: ref Asan hospital, cited from earlier work; for MIC: ASEC 10 (ESBL), resistance information of clinical isolate; for susceptibility category: ASEC 10
[16] = tested on: MDR E. coli ASEC 11; conditions: ref Asan hospital, cited from earlier work; for MIC: ASEC 11 (ESBL), resistance information of clinical isolate; for susceptibility category: ASEC 11
[17] = tested on: MDR E. coli ASEC 8; conditions: ref Asan hospital, cited from earlier work; for MIC: ASEC 8 (ESBL), resistance information of clinical isolate; for susceptibility category: ASEC 8
[18] = tested on: MDR E. coli ASEC 14; conditions: ref Asan hospital, cited from earlier work; for MIC: ASEC 14 (AmpC), resistance information of clinical isolate; for susceptibility category: ASEC 14
[19] = tested on: MDR E. coli ASEC 2; conditions: ref Asan hospital, cited from earlier work; for MIC: ASEC 2 (NDM-7), resistance information of clinical isolate; for susceptibility category: ASEC 2

Row | SMILES | MIC [1] | susceptibility category [1] | MIC [2] | susceptibility category [2] | MIC [3] | susceptibility category [3] | MIC [4] | susceptibility category [4] | MIC [5] | susceptibility category [5] | MIC [6] | susceptibility category [6] | MIC [7] | susceptibility category [7] | MIC [8] | susceptibility category [8] | MIC [9] | susceptibility category [9] | MIC [10] | susceptibility category [10] | further results
1 | CO/N=C(\C(=O)N[C@@H]1C(=O)N2C(C(=O)O)=C(CSc3nc(=O)c(=O)[nH]n3C)CS[C@H]12)c1csc(N)n1 [Ceftriaxone] | > 32 µg/mL | R | > 32 µg/mL | R | > 32 µg/mL | R | > 32 µg/mL | R | > 32 µg/mL | R | > 32 µg/mL | R | – | – | – | – | – | – | – | – | –
2 | C[C@@H](O)[C@H]1C(=O)N2C(C(=O)O)=C(SCCN=CN)C[C@H]12 [Imipenem] | > 8 µg/mL | R | > 8 µg/mL | R | <= 4 μg mL-1 | R | > 8 µg/mL | R | > 8 µg/mL | R | > 8 µg/mL | R | <= 1 μg mL-1 | S | <= 1 μg mL-1 | S | > 8 µg/mL | R | <= 1 μg mL-1 | S | MIC [11]: <= 1 μg mL-1; susceptibility category [11]: S; MIC [12]: <= 1 μg mL-1; susceptibility category [12]: S; MIC [13]: <= 1 μg mL-1; susceptibility category [13]: S; MIC [14]: <= 1 μg mL-1; susceptibility category [14]: S; MIC [15]: <= 1 μg mL-1; susceptibility category [15]: S; MIC [16]: <= 1 μg mL-1; susceptibility category [16]: S; MIC [17]: <= 1 μg mL-1; susceptibility category [17]: S; MIC [18]: 8 µg/mL (≈ 26.7 µM); susceptibility category [18]: R; MIC [19]: 8 µg/mL (≈ 26.7 µM); susceptibility category [19]: R
3 | CO[C@@]1(NC(=O)Cc2cccs2)C(=O)N2C(C(=O)O)=C(COC(N)=O)CS[C@@H]21 [Cefoxitin] | > 16 µg/mL | R | > 16 µg/mL | R | > 16 µg/mL | R | > 16 µg/mL | R | > 16 µg/mL | R | > 16 µg/mL | R | <= 8 μg mL-1 | S | > 16 µg/mL | R | > 16 µg/mL | R | > 16 µg/mL | R | MIC [11]: > 16 µg/mL; susceptibility category [11]: R; MIC [12]: 16 µg/mL (≈ 37.4 µM); susceptibility category [12]: I; MIC [13]: > 16 µg/mL; susceptibility category [13]: R; MIC [14]: > 16 µg/mL; susceptibility category [14]: R; MIC [15]: <= 8 μg mL-1; susceptibility category [15]: S; MIC [16]: <= 8 μg mL-1; susceptibility category [16]: S; MIC [17]: <= 8 μg mL-1; susceptibility category [17]: S; MIC [18]: > 16 µg/mL; susceptibility category [18]: R; MIC [19]: > 16 µg/mL; susceptibility category [19]: R
